Measurements from patent publication US10369185B2, “Methods and compositions for enhancement of ability to concentrate” (KYOWA HAKKO BIO CO., LTD., priority 2014, dated 2019).
Entries after “also recorded” stand apart in the source; their conditions may differ. Peptide text beside a SMILES is read from it.

Test system: male runners
Test: Dynavision D2 MODE A reaction test (hits and time per hit in 60 s)
Assay type: in vivo, human
Set-up: Mode A Avg Δ (average time per hit), group mean: unit not given here
Settings: for Mode A Avg Δ (average time per hit), group mean / Mode A Hits Δ, group mean: Post-Pre
Description: The testing protocol is depicted in FIG. 1. Data collection occurred on four separate occasions. Each session required participants to perform a 60-min run at 75% of their previously measured VO2max. Following this run, all participants performed a run at 90% of their VO2max until volitional exhaustion. All participants performed their first trial (DHY) without any rehydration. During this session the total weight lost during the trial was determined. The fluid loss that occurred during this session was then used to determine the participant's swear rate (L·hr^−1). To continue in the study, participant's sweat rate was or exceeded 1.3 L·hr^−1. During the next three trails participants were provided 250 ml of fluid every 15 minutes in equal amounts. During one of the trials participants consumed only a flavored sports drink (ELECT only), while during the other trials participants consumed the alanine-glutamine supplement (Sustamine™) mixed in the same flavored sports drink at either a low (LD: 300 mg per 500 ml) or high (HD: 1 g per 500 ml) dose. Measurement of upper body reaction time was performed on the Dynavision D2 Visuomotor Training Device (D2; Dynavision International LLC, West Chester, Ohio). The D2 is a light training reaction device, developed to train sensory motor integration through the visual system. It consists of a board (4 foot×4 foot) that can be raised or lowered relative to the height of the operator. It contains 64 target buttons arranged into five concentric circles surrounding a center screen that can be illuminated to serve as a stimulus for the participant. Participants were required to assume a comfortable athletic stance and stand at a distance from the board where they could easily reach all of the lights. The board height was adjusted so the LCD screen was located just below eye level. A total of three different reaction tests were conducted. Participants were instructed to fixate their gaze on the LCD screen in the middle of the board and to keep their focus there for the entirety of the experiment. The second assessment (MODE A) measured the participant's ability to react to a stimulus as it changed positions on the board. An initial stimulus will present on the D2 in a 6 random location. The stimulus remained lit until it was struck by the participant. The stimulus then appeared at another random location. The participant was instructed to identify and strike as many stimuli as possible within 60 s. The number of hits and the average time per hits were recorded for each participant. Additionally, to make inferences on true effects of the different trials on reaction performance, an analysis based on the magnitude of differences, calculated from 90% confidence intervals, as previously described by Batterham and Hopkins (2005), was used in this study. Differences in Post-Pre performance (Δresponse) between trials were analyzed via a published spreadsheet (Hopkins 2007), with the smallest non-trivial change set at 20% of the grand standard deviation (Batterham and Hopkins 2005). All data are expressed as a mean effect±SD, with percent chances of a beneficial, trivial or negative outcome. Qualitative inferences, based on quantitative chances were assessed as: <1% almost certainly not, 1-5% very unlikely, 5-25% unlikely, 25-75% possibly, 75-95% likely, 95-99% very likely and >99% almost certainly (Hopkins 2002).

C[C@H](N)C(=O)N[C@@H](CCC(N)=O)C(=O)O [L-Alanyl-L-Glutamine] (H-Ala-Gln-OH)
Mode A Avg Δ, Interpretation (Dehydration vs High Dose): Possibly
Mode A Avg Δ, Mean Difference (Dehydration vs High Dose): 0.025
Mode A Avg Δ, Percent Negative (Dehydration vs High Dose): 2.83%
Mode A Avg Δ, Percent Positive (Dehydration vs High Dose): 69.46%
Mode A Avg Δ, Percent Trivial (Dehydration vs High Dose): 27.71%
Mode A Hits Δ, Interpretation (Dehydration vs High Dose): possible negative effect; also recorded: Possibly
Mode A Hits Δ, Mean Difference (Dehydration vs High Dose): −2.9
Mode A Hits Δ, Percent Negative (Dehydration vs High Dose): 70.21%
Mode A Hits Δ, Percent Positive (Dehydration vs High Dose): 2.09%
Mode A Hits Δ, Percent Trivial (Dehydration vs High Dose): 27.70%
Mode A Avg Δ, Interpretation (Dehydration vs Low Dose): Possibly
Mode A Avg Δ, Mean Difference (Dehydration vs Low Dose): 0.02
Mode A Avg Δ, Percent Negative (Dehydration vs Low Dose): 2.61%
Mode A Avg Δ, Percent Positive (Dehydration vs Low Dose): 61.93%
Mode A Avg Δ, Percent Trivial (Dehydration vs Low Dose): 35.45%
Mode A Hits Δ, Interpretation (Dehydration vs Low Dose): possible negative effect; also recorded: Possibly
Mode A Hits Δ, Mean Difference (Dehydration vs Low Dose): −2.2
Mode A Hits Δ, Percent Negative (Dehydration vs Low Dose): 57.68%
Mode A Hits Δ, Percent Positive (Dehydration vs Low Dose): 3.88%
Mode A Hits Δ, Percent Trivial (Dehydration vs Low Dose): 38.43%
Mode A Avg Δ, Interpretation (Gatorade vs High Dose): Possibly
Mode A Avg Δ, Mean Difference (Gatorade vs High Dose): 0.023
Mode A Avg Δ, Percent Negative (Gatorade vs High Dose): 2.17%
Mode A Avg Δ, Percent Positive (Gatorade vs High Dose): 67.69%
Mode A Avg Δ, Percent Trivial (Gatorade vs High Dose): 30.14%
Mode A Hits Δ, Interpretation (Gatorade vs High Dose): possibly negative
Mode A Hits Δ, Mean Difference (Gatorade vs High Dose): 2.7
Mode A Hits Δ, Percent Negative (Gatorade vs High Dose): 65.88%
Mode A Hits Δ, Percent Positive (Gatorade vs High Dose): 2.87%
Mode A Hits Δ, Percent Trivial (Gatorade vs High Dose): 31.25%
speed per hit, MODE A (HD and LD compared to DHY and ELECT only): not statistically different
improvements of successful hits, MODE A (HD and LD compared to DHY and ELECT only, not statistically significant): 3-4 fold
Mode A Avg Δ (average time per hit), group mean (High Dose (1 g per 500 ml)): −0.028
Mode A Hits Δ, group mean (High Dose (1 g per 500 ml)): 3.67
Mode A Avg Δ (average time per hit), group mean (Low Dose (300 mg per 500 ml)): −0.023
Mode A Hits Δ, group mean (Low Dose (300 mg per 500 ml)): 2.92
Mode A Avg Δ, Interpretation (Low Dose vs Gatorade): Unclear
Mode A Avg Δ, Mean Difference (Low Dose vs Gatorade): −0.018
Mode A Avg Δ, Percent Negative (Low Dose vs Gatorade): 50.55%
Mode A Avg Δ, Percent Positive (Low Dose vs Gatorade): 44.41%
Mode A Avg Δ, Percent Trivial (Low Dose vs Gatorade): 5.04%
Mode A Hits Δ, Interpretation (Low Dose vs Gatorade): Unclear
Mode A Hits Δ, Mean Difference (Low Dose vs Gatorade): 1.9
Mode A Hits Δ, Percent Negative (Low Dose vs Gatorade): 42.26%
Mode A Hits Δ, Percent Positive (Low Dose vs Gatorade): 50.35%
Mode A Hits Δ, Percent Trivial (Low Dose vs Gatorade): 7.39%
Mode A Avg Δ, Interpretation (Low Dose vs High Dose): Very Likely
Mode A Avg Δ, Mean Difference (Low Dose vs High Dose): 0.005
Mode A Avg Δ, Percent Negative (Low Dose vs High Dose): 0.02%
Mode A Avg Δ, Percent Positive (Low Dose vs High Dose): 2.51%
Mode A Avg Δ, Percent Trivial (Low Dose vs High Dose): 97.47%
Mode A Hits Δ, Interpretation (Low Dose vs High Dose): Likely
Mode A Hits Δ, Mean Difference (Low Dose vs High Dose): −0.75
Mode A Hits Δ, Percent Negative (Low Dose vs High Dose): 9.11%
Mode A Hits Δ, Percent Positive (Low Dose vs High Dose): 0.11%
Mode A Hits Δ, Percent Trivial (Low Dose vs High Dose): 90.77%
